Experimental findings from PubChem BioAssay (NCI) are described below.

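Assay format: 96-well plates, 48-hour exposure. TGI: total growth inhibition.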

Assay in all cases: inhibition of tumour cell growth, NCI panel, 48 h
Experiment [1] relates to CCRF-CEM leukemia.
In experiment [2] the test system is SF-295 CNS.
In experiment [3] the test system is K-562 leukemia.
Experiment [4] concerns MCF7 breast.
Experiment [5] relates to SN12C renal.
Experiment [6] relates to NCI-H522 lung.
Experiment [7] relates to MDA-MB-435.
Experiment [8] concerns SF-539 CNS.

In the case of `Cc1ccc(N2C(=O)C3c4[nH]c5ccccc5c4C4CCC(C(C)(C)C)CC4C3C2=O)cc1` (stereo not given), the TGI in experiment [1] was 15.4 µM; in experiment [2] it was 24.3 µM; in experiment [3], 17.5 µM; in experiment [4], greater than 46 µM; in experiment [5], 24.7 µM; in experiment [6], 26.5 µM. The TGI in experiment [7] came out at 42 µM.

For `C1=NCCNCCN=Cc2ccc(cc2)OCc2cccc(n2)COc2ccc1cc2`, the TGI in experiment [1], in experiment [2], in experiment [3], in experiment [8], in experiment [4] and in experiment [5] was greater than 100 µM in each case. For the same compound, the TGI in experiment [6] and in experiment [7] was greater than 100 µM each time.

In the case of `COc1cc(OC)c(OC)cc1/C=N/N=C(\N)NO`, the TGI in experiment [1], in experiment [2], in experiment [3], in experiment [8], in experiment [4] and in experiment [5] was greater than 100 µM in each case. The TGI in experiment [6] and in experiment [7] was greater than 100 µM in each case.

In the case of `CC1C(c2ccccc2)OP(=O)(OC(C#N)c2ccccc2)N1C` (stereo not given), the TGI in experiment [1], in experiment [2], in experiment [3], in experiment [8], in experiment [4] and in experiment [5] was greater than 100 µM in each case. Moreover, the TGI in experiment [6] and in experiment [7] was greater than 100 µM each time.

As for `N#Cc1c(N)oc(-c2cccc([N+](=O)[O-])c2)c1C#N`, the TGI in experiment [1] was greater than 100 µM; in experiment [2] it was greater than 100 µM; in experiment [8] it was 57.2 µM; in experiment [4], greater than 100 µM; in experiment [5] it was 90.6 µM; in experiment [6], 59.1 µM. This compound showed a TGI in experiment [7] greater than 100 µM.

In the case of `COC(=O)C1=CSC2(S1)C(C(=O)OC)=CSc1c2ssc1=Nc1ccccc1` (stereo not given), the TGI in experiment [1] is 7.96 µM; in experiment [2], 7.09 µM; in experiment [3], 7.38 µM; in experiment [8] it was 2.96 µM; in experiment [4] it was greater than 100 µM; in experiment [5], 4.3 µM. Further, the TGI in experiment [6] is 3.4 µM; in experiment [7] it was 5.09 µM.

`N#C/C(=C\c1ccccc1)C(=O)Nc1nnc(-c2ccccc2)o1`: the TGI is 50.6 µM in experiment [1]; greater than 100 µM in experiment [2]; greater than 100 µM in experiment [3]; greater than 100 µM in experiment [4]; greater than 100 µM in experiment [5]; greater than 100 µM in experiment [6]. In experiment [7], this compound yielded a TGI greater than 100 µM.

Turning to `COC(=O)[C@@H]1CN(C(=O)CCc2ccccc2)C(=O)N1C(=O)OCc1ccccc1`, the TGI in experiment [1], in experiment [2], in experiment [3], in experiment [8], in experiment [4] and in experiment [5] was greater than 100 µM each time. Also, the TGI in experiment [6] and in experiment [7] was greater than 100 µM each time.

For the compound `CC12Nc3ccccc3N1C(=O)c1ccccc12` (stereo not given), the TGI in experiment [1], in experiment [2], in experiment [3], in experiment [8], in experiment [4] and in experiment [5] was greater than 100 µM each time. Also, the TGI in experiment [6] and in experiment [7] was greater than 100 µM each time.

On to `CCCCCC/C=C\CCCCCCCCCc1cccc(O)c1C(=O)O`, for which the TGI in experiment [1], in experiment [2], in experiment [3], in experiment [8], in experiment [4] and in experiment [5] was greater than 100 µM in each case. Further, the TGI in experiment [6] and in experiment [7] was greater than 100 µM throughout.

In the case of `O=c1oc2ccccc2c(Nc2ccc3c(c2)S(=O)(=O)c2ccccc2O3)c1[N+](=O)[O-]`, the TGI worked out at 83.5 µM in experiment [1]; 77.7 µM in experiment [2]; 71.3 µM in experiment [3]; 65.2 µM in experiment [8]; 56.6 µM in experiment [4]; 92.9 µM in experiment [5]. The figures for the TGI in experiment [6] and in experiment [7] were 42.9 µM and 97.3 µM, respectively.

As for `COc1ccc2[nH]c3c(c2c1)CCn1c-3nc2ccccc2c1=O`, the TGI in experiment [1], in experiment [2], in experiment [3], in experiment [8], in experiment [4] and in experiment [5] was greater than 25 µM each time. In addition, the TGI in experiment [6] and in experiment [7] was greater than 25 µM in each case.

Consider `O=C1C2CC=CCC2C(=O)N1n1c(-c2ccccc2)n[nH]c1=O` (stereo not given), for which the TGI in experiment [1], in experiment [2], in experiment [3], in experiment [8], in experiment [4] and in experiment [5] was greater than 100 µM throughout. Moreover, the TGI in experiment [6] and in experiment [7] was greater than 100 µM in each case.

For the compound `COc1cc2c(c(OC)c1OC)C(=O)[C@H](O)[C@H]2NC(N)=O`, the TGI in experiment [1], in experiment [2], in experiment [3], in experiment [8], in experiment [4] and in experiment [5] was greater than 100 µM in each case. For the same compound, the TGI in experiment [6] and in experiment [7] was greater than 100 µM each time.

With `COc1ccc(NC(=O)/C(=N\NC(=O)C[n+]2ccccc2)c2c(O)c3ccc(O)cc3oc2=O)c([N+](=O)[O-])c1`, the TGI in experiment [1], in experiment [2], in experiment [3], in experiment [8], in experiment [4] and in experiment [5] was greater than 100 µM in each case. Besides, the TGI in experiment [6] and in experiment [7] was greater than 100 µM in each case.

As to `COc1ccc(NC(=O)CC(=O)N2N=C(C)C(N=Nc3ccc(S(=O)(=O)c4ccc(N=NC5C(=O)N(C(=O)CC(=O)Nc6ccc(OC)cc6)N=C5C)cc4)cc3)C2=O)cc1` (stereo not given), the TGI in experiment [1], in experiment [2], in experiment [3], in experiment [8], in experiment [4] and in experiment [5] was greater than 100 µM in each case. In addition, the TGI in experiment [6] and in experiment [7] was greater than 100 µM in each case.
